Source: patent publication US6610697B1, “Substituted 2-aryl-3-(heteroaryl)-imidazo[1,2-a]pyrimidines, and related pharmaceutical compositions and methods” (Ortho-McNeil Pharmaceutical, Inc., priority 1999, dated 2003)

Columns and labels:
TNF-α = test: PBMC whole cell assay (LPS/PBMC, TNF-α ELISA); format: cell-based; conditions: human PBMC, LPS stimulation overnight
Protocol: Representative compounds of the present invention were tested in an in vitro whole cell assay using peripheral blood mononuclear cells (“PBMC's”) which were obtained from human blood as follows. Freshly obtained venous blood was anticoagulated with heparin, diluted with an equal volume of phosphate buffered saline (“PBS”) and placed in a sterile tube or other container. Aliquots (30 mL) of this mixture were transferred to centrifuge tubes which were underlaid with Ficoll-Hypaque (15 mL). The prepared tubes were centrifuged at 400×g without braking for 30 min at room temperature. Approximately ½ to ⅔ of the platelet layer above the mononuclear cell band was removed with a pipette. The majority of the mononuclear cell layer was carefully removed using a pipette and these PBMC's were diluted with PBS and spun at 600×g for 15 min. The resulting PBMC's were washed with another portion of PBS and spun at 400×g for 10 min at room temperature. The recovered pellets were diluted in low endotoxin RPMI/1% FCS culture medium and gave a cell concentration of 0.5-2.0×10^6 PMBC/mL. A small volume of the suspension was removed for counting on a hemocytometer and the remaining preparation was centrifuged at 200×g for 15 min at room temperature. The recovered pelleted PMBC's were re-suspended in RPMI/1% FCS to a concentration of 1.67×10^6/mL.
To run the assay, the PBMC suspension (180 μL) was transferred to duplicate wells of a 96-well flat-bottom microtiter plate and incubated for 1 h at 37° C. A solution of test compound (10 μL, prepared at 20×the desired final concentration) was added to each well and the plate was incubated for 1 h at 37° C. A solution (10 μL) of LPS in RPMI/1% FCS (200 ng/mL) was added and the wells were incubated overnight at 37° C. The supernate (100 μL) was removed from each well and diluted with RPMI/1% FCS (400 μL). The samples were analyzed for TNF-α using a commercial ELISA kit (Genzyme).

[1] = tested on: LPS-induced TNF-α production; test: In vivo rodent assay, LPS-induced TNF-α production; conditions: Mus musculus; BALB/cJ female mice, oral 10 mg/kg, LPS 1 mg/kg i.p. 30 min after dosing, serum TNF-α 1 h later
Protocol: Mice (BALB/cJ females, Jackson Laboratories) were fasted for 30 min. prior to oral dosing with 5-10 mL/kg of a test compound at 5-50 mg/kg. Thirty minutes after dosing, the animals were injected intraperitoneally with LPS at 1 mg/kg and returned to their cages for 1 h. Animals were anesthetized by CO2, exsanguinated by cardiac puncture and whole blood collected (0.1-0.7 mL). The blood was allowed to clot and serum was transferred to a centrifuge tube. This sample was centrifuged, and serum was collected, aliquoted, and frozen at −80° C. Samples were tested by commercial ELISA's for TNF-α (Endogen for mouse TNF-α). The % inhibition of the test compounds was calculated by the following formula: % inhibition=[1-(sample-BKG)/(CTRL-BKG)]×100.

Row | SMILES | IC50 (TNF-α) [nM] | inhibition in vivo at 10 mg/kg [1] [%]
1 | Nc1ccn2c(-c3ccncc3)c(-c3ccc(F)cc3)nc2n1 [Compound 1, 2-(4-fluorophenyl)-3-(4-pyridinyl)-imidazo[1,2-a]pyrimidin-7-amine] | 49 | 100
2 | Nc1ccn2c(-c3ccncc3)c(-c3cccc(F)c3)nc2n1 [Compound 2, 2-(3-fluorophenyl)-3-(4-pyridinyl)-imidazo[1,2-a]pyrimidin-7-amine] | 55 | 100
3 | Nc1ccn2c(-c3ccnc4ccccc34)c(-c3ccc(F)cc3)nc2n1 [Compound 3, 2-(4-fluorophenyl)-3-(4-quinolinyl)-imidazo[1,2-a]pyrimidin-7-amine] | 333 | 26
4 | Nc1ccn2c(-c3ccncc3)c(-c3ccc(F)c(Cl)c3)nc2n1 [Compound 4, 2-(3-chloro-4-fluorophenyl)-3-(4-pyridinyl)-imidazo[1,2-a]pyrimidin-7-amine] | 21 | 100
5 | Nc1ccn2c(-c3ccncc3)c(-c3ccccc3)nc2n1 [Compound 5, 2-phenyl-3-(4-pyridinyl)-imidazo[1,2-a]pyrimidin-7-amine] | 55 | 100
6 | Nc1ccn2c(-c3ccnc(NCc4ccccc4)c3)c(-c3ccc(F)cc3)nc2n1 [Compound 6, 2-(4-fluorophenyl)-3-[2-[(phenylmethyl)amino]4-pyridinyl]-imidazo[1,2-a]pyrimidin-7-amine] | 6 | 42
7 | Nc1ccn2c(-c3ccncc3)c(-c3cccc(C(F)(F)F)c3)nc2n1 [Compound 7, 3-(4-pyridinyl)-2-[3-(trifluoromethyl)phenyl]-imidazo[1,2-a]pyrimidin-7-amine] | 35 | 99
8 | Nc1ccn2c(-c3ccnc(NCc4ccccc4)c3)c(-c3cccc(C(F)(F)F)c3)nc2n1 [Compound 8, 3-[2-[(phenylmethyl)amino]4-pyridinyl]-2-[3-(trifluoromethyl)phenyl]-imidazo[1,2-a]pyrimidin-7-amine] | 4 | 19
9 | C[C@H](Nc1nccc(-c2c(-c3cccc(C(F)(F)F)c3)nc3nc(N)ccn23)n1)c1ccccc1 [Compound 9, 3-[2-[[(1S)-1-Phenylethyl]amino]4-pyrimidinyl]-2-[3-(trifluoromethyl)phenyl]imidazo[1,2-a]pyrimidin-7-amine] | 0.5 | 97
10 | CSc1nccc(-c2c(-c3ccc(F)cc3)nc3nc(N)ccn23)n1 [Compound 10, 2-(4-Fluorophenyl)-3-[2-(methylthio)-4-pyrimidinyl]imidazo[1,2-a]pyrimidin-7-amine] | 37 | 68
11 | CSc1nccc(-c2c(-c3cccc(C(F)(F)F)c3)nc3nc(N)ccn23)n1 [Compound 11, 3-[2-(Methylthio)-4-pyrimidinyl]-2-[3-(trifluoromethyl)phenyl]imidazo[1,2-a]pyrimidin-7-amine] | 27 | 38
12 | CSc1nccc(-c2c(-c3cccc(F)c3)nc3nc(N)ccn23)n1 [Compound 12, 2-(3-Fluorophenyl)-3-[2-(methylthio)-4-pyrimidinyl]imidazo[1,2-a]pyrimidin-7-amine] | 10 | 51

The next lines start with results.

Row | IC50 (TNF-α) [nM] | SMILES | inhibition in vivo at 10 mg/kg [1] [%]
13 | 278 | Nc1ccn2c(-c3ccncn3)c(-c3cccc(C(F)(F)F)c3)nc2n1 [Compound 13, 3-(4-Pyrimidinyl)-2-[3-(trifluoromethyl)phenyl]imidazo[1,2-a]pyrimidin-7-amine] | 85
14 | 8 | Nc1ccn2c(-c3ccnc(N4CCCCC4)n3)c(-c3ccccc3)nc2n1 [Compound 14, 2-Phenyl-3-[2-(1-piperidinyl)-4-pyrimidinyl]imidazo[1,2-a]pyrimidin-7-amine] | 63
15 | 28 | CSc1nccc(-c2c(-c3ccccc3)nc3nc(N)ccn23)n1 [Compound 15, 3-[2-(Methylthio)-4-pyrimidinyl]-2-phenylimidazo[1,2-a]pyrimidin-7-amine] | 23
16 | 304 | Nc1ccn2c(-c3ccncn3)c(-c3ccccc3)nc2n1 [Compound 16, 2-Phenyl-3-(4-pyrimidinyl)imidazo[1,2-a]pyrimidin-7-amine] | 73
17 | 3410 | CS(=O)(=O)c1nccc(-c2c(-c3ccccc3)nc3nc(N)ccn23)n1 [Compound 17, 3-[2-(Methylsulfonyl)-4-pyrimidinyl]-2-phenylimidazo [1,2-a]pyrimidin-7-amine] | –
18 | 520 | CS(=O)(=O)c1nccc(-c2c(-c3cccc(C(F)(F)F)c3)nc3nc(N)ccn23)n1 [Compound 18, 3-[2-(Methylsulfonyl)-4-pyrimidinyl]-2-[3-(trifluoromethyl)phenyl]imidazo[1,2-a]pyrimidin-7-amine] | 10
19 | 0.4 | C[C@H](Nc1nccc(-c2c(-c3ccccc3)nc3nc(N)ccn23)n1)c1ccccc1 [Compound 19, 2-Phenyl-3-[2-[[(1S)-1-phenylethyl]amino]4-pyrimidinyl]imidazo[1,2-a]pyrimidin-7-amine] | 100
20 | 14 | COc1ccc(CNc2nccc(-c3c(-c4ccccc4)nc4nc(N)ccn34)n2)cc1 [Compound 20, 3-[[[(4-Methoxyphenyl)methyl]amino]-4-pyrimidinyl]-2-phenylimidazo[1,2-a]pyrimidin-7-amine] | –
21 | 1 | C[C@H](Nc1nccc(-c2c(-c3ccc(F)cc3)nc3nc(N)ccn23)n1)C1CCCCC1 [Compound 22, 3-[2-[[(1S)-1-Cyclohexylethyl]amino]-4-pyrimidinyl]-2-(4-fluorophenyl)imidazo[1,2-a]pyrimidin-7-amine] | 74
22 | 90 | COc1nccc(-c2c(-c3ccccc3)nc3nc(N)ccn23)n1 [Compound 23, 3-(2-Methoxy-4-pyrimidinyl)-2-phenylimidazo[1,2-a]pyrimidin-7-amine] | 87
23 | 199 | Nc1ccn2c(-c3ccncn3)c(-c3ccc(F)cc3)nc2n1 [Compound 24, 2-(4-Fluorophenyl)-3-(4-pyrimidinyl)imidazo[1,2-a]pyrimidin-7-amine] | 91
24 | 162 | Nc1ccn2c(-c3ccncc3)c(-c3cccc(Cl)c3)nc2n1 [Compound 25, 2-(3-Chlorophenyl)-3-(4-pyridinyl)imidazo[1,2-a]pyrimidin-7-amine] | 47
